# Like-named read-outs stand apart in the source and are kept apart here.
# Experiments:
# [1] = in vivo
# Description: (§2) The 3-hexine-2,5-diol of the present invention was tested for safety.
# (§3) The glycerol derivatives of the present invention i.e., 3-phenoxy-1,2-propane diol and 3-benzyloxy-1,2-propane diol, were tested for safety.
# (§4) The 2,2-dimethyl-1-phenyl-1,3-propanediol of the present invention was tested for safety.
# [2] = tested on: Pseudomonas aeuginosa (ATCC15442); assay: Minimum inhibiting concentration (MIC), agar plate method; format: cell-based
# Description: (§1) Using the agar plate method, for bacteria, the following various bacteria were inoculated in SCD agar media (made by Eiken) containing 3-hexine-2,5-diol in different concentrations and cultured at 30° C. for 24 hours. […] Further, for fungi, the following various bacteria were inoculated in a potato dextrose agar media containing 3-hexine-2,5-diol in different concentrations and cultured at 25° C. for 48 hours. […] The same was conducted for methyl paraoxybenzoate methyl. The results of the judgment are shown in Table 1 based on the following evaluation criteria:
# as §1, with “III-1” for “1”
# as §1, with “media containing the test compound, in different” for “media containing 3-hexine-2,5-diol in different”, “in Table VII-1 based on” for “in Table 1 based on”, “evaluation criteria: […]” for “evaluation criteria:”
# [3] = tested on: Aspergillus niger (ATCC16404); assay: as above; format: cell-based
# Description: as §1
# as §1, with “III-1” for “1”
# as §1, with “media containing the test compound, in different” for “media containing 3-hexine-2,5-diol in different”, “in Table VII-1 based on” for “in Table 1 based on”, “evaluation criteria: […]” for “evaluation criteria:”
# [4] = tested on: Escherichia coli (ATCC8739); assay: as above; format: cell-based
# Description: as §1
# as §1, with “III-1” for “1”
# as §1, with “media containing the test compound, in different” for “media containing 3-hexine-2,5-diol in different”, “in Table VII-1 based on” for “in Table 1 based on”, “evaluation criteria: […]” for “evaluation criteria:”
# [5] = tested on: Staphylococcus aureus (ATCC6538); assay: as above; format: cell-based
# Description: as §1
# as §1, with “III-1” for “1”
# as §1, with “media containing the test compound, in different” for “media containing 3-hexine-2,5-diol in different”, “in Table VII-1 based on” for “in Table 1 based on”, “evaluation criteria: […]” for “evaluation criteria:”
# [6] = tested on: Candida albicans (ATCC10231); assay: as above; format: cell-based
# Description: as §1
# as §1, with “III-1” for “1”
# as §1, with “media containing the test compound, in different” for “media containing 3-hexine-2,5-diol in different”, “in Table VII-1 based on” for “in Table 1 based on”, “evaluation criteria: […]” for “evaluation criteria:”
# [7] = in vivo; remark: listed apart in the source
# Description: as §2, §3, §4
# [8] = in vivo; remark: listed apart in the source
# Description: as §2, §3, §4
# [9] = Continuous skin irritation test; details: in vivo
# Description: as §2, §3, §4
# Skin sensitization test = details: in vivo
# Description: as §2, §3, §4
# [10] = Primary skin irritation test; details: in vivo
# Description: as §2, §3, §4
# [11] = Pseudomonas aeuginosa (ATCC15442), read-out: Antimicrobial effect (minimum inhibiting concentration rank)
# [12] = Aspergillus niger (ATCC16404), read-out: Antimicrobial effect (minimum inhibiting concentration rank)
# [13] = Escherichia coli (ATCC8739), read-out: Antimicrobial effect (minimum inhibiting concentration rank)
# [14] = Staphylococcus aureus (ATCC6538), read-out: Antimicrobial effect (minimum inhibiting concentration rank)
# [15] = Candida albicans (ATCC10231), read-out: Antimicrobial effect (minimum inhibiting concentration rank)
# [16] = Table I-1, SCD agar media, 30° C., 24 hours
# [17] = Table I-1, potato dextrose agar media, 25° C., 48 hours
# [18] = Table III-1, SCD agar media, 30° C., 24 hours
# [19] = Table III-1, potato dextrose agar media, 25° C., 48 hours
# Description for Genetic toxicity test: as §2, §3, §4
smiles,measurement,setting,value
CC(C)(CO)C(O)c1ccccc1 (stereo not drawn),toxicity (single administration toxicity test),single administration,extremely weak
same,skin sensitization test result,[1],negative
same,MIC,[2]; [11],< 1000 µg/mL
same,MIC,[3]; [12],< 1000 µg/mL
same,MIC,[4]; [13],< 1000 µg/mL
same,MIC,[5]; [14],< 1000 µg/mL
same,MIC,[6]; [15],< 1000 µg/mL
same,skin irritability (continuous skin irritation test),[7],extremely weak
same,skin irritability (primary skin irritation test),[8],extremely weak
"OCC(O)COCc1ccccc1 (stereo not drawn) [3-Benzyloxy-1,2-propane diol, 3-benzyloxy-1,2-propanediol]",toxicity (single administration toxicity test),single administration,extremely weak
same,skin sensitization test result,[1],negative
same,MIC,"[2]; Pseudomonas, ATCC15442, Table III-1, SCD agar media, 30° C., 24 hours, read-out: Antimicrobial effect: minimum inhibiting concentration (MIC)",< 1000 µg/mL
same,MIC,"[3]; Aspergillus niger, ATCC16404, Table III-1, potato dextrose agar media, 25° C., 48 hours, read-out: Antimicrobial effect: minimum inhibiting concentration (MIC)",< 1000 µg/mL
same,MIC,"[4]; Escherichia coli, ATCC8739, Table III-1, SCD agar media, 30° C., 24 hours, read-out: Antimicrobial effect: minimum inhibiting concentration (MIC)",< 1000 µg/mL
same,MIC,"[5]; Staphylococcus aureus, ATCC6538, Table III-1, SCD agar media, 30° C., 24 hours, read-out: Antimicrobial effect: minimum inhibiting concentration (MIC)",< 1000 µg/mL
same,MIC,"[6]; Candida albicans, ATCC10231, Table III-1, potato dextrose agar media, 25° C., 48 hours, read-out: Antimicrobial effect: minimum inhibiting concentration (MIC)",< 1000 µg/mL
same,skin irritability (continuous skin irritation test),[7],extremely weak
same,skin irritability (primary skin irritation test),[8],extremely weak
"OCC(O)COc1ccccc1 (stereo not drawn) [3-Phenoxy-1,2-propane diol, 3-phenoxy-1,2-propanediol]",toxicity (single administration toxicity test),in vivo,extremely weak
same,skin sensitization test result,[1],negative
same,MIC,"[2]; Pseudomonas, ATCC15442, 24 h, read-out: Antimicrobial effect: minimum inhibiting concentration (MIC)",< 1000 µg/mL
same,MIC,"[3]; Aspergillus niger, ATCC16404, 48 h, read-out: Antimicrobial effect: minimum inhibiting concentration (MIC)",< 1000 µg/mL
same,MIC,"[4]; Escherichia coli, ATCC8739, 24 h, read-out: Antimicrobial effect: minimum inhibiting concentration (MIC)",< 1000 µg/mL
same,MIC,"[5]; Staphylococcus aureus, ATCC6538, 24 h, read-out: Antimicrobial effect: minimum inhibiting concentration (MIC)",< 1000 µg/mL
same,MIC,"[6]; Candida albicans, ATCC10231, 48 h, read-out: Antimicrobial effect: minimum inhibiting concentration (MIC)",< 1000 µg/mL
same,skin irritability (continuous skin irritation test),[7],extremely weak
same,skin irritability (primary skin irritation test),[8],extremely weak
"CC(O)C#CC(C)O (stereo not drawn) [3-hexine-2,5-diol]",toxicity (single administration toxicity test),single administration,extremely weak
same,genetic toxicity test result,Genetic toxicity test,negative
same,skin irritability (continuous skin irritation test),[9],extremely weak
same,Antimicrobial effect: minimum inhibiting concentration (MIC),[2]; [16],A (Minimum inhibiting concentration of less than 1000 ppm)
same,Antimicrobial effect: minimum inhibiting concentration (MIC),[3]; [17],A (Minimum inhibiting concentration of less than 1000 ppm)
same,Antimicrobial effect: minimum inhibiting concentration (MIC),[4]; [16],A (Minimum inhibiting concentration of less than 1000 ppm)
same,Antimicrobial effect: minimum inhibiting concentration (MIC),[5]; [16],A (Minimum inhibiting concentration of less than 1000 ppm)
same,Antimicrobial effect: minimum inhibiting concentration (MIC),[6]; [17],A (Minimum inhibiting concentration of less than 1000 ppm)
same,skin sensitization test result,Skin sensitization test,negative
same,skin irritability (primary skin irritation test),[10],extremely weak
"COC(=O)c1ccc(O)cc1 [Methyl paraoxybenzoate, reference compound]",MIC,"[2]; Pseudomonas aeuginosa (ATCC15442), read-out: Antimicrobial effect (minimum inhibiting concentration class)",5000 to 10000 µg/mL
same,MIC,[2]; [11],5000 to 10000 µg/mL
same,MIC,"[2]; Pseudomonas, ATCC15442, Table I-1, SCD agar media, 30° C., 24 hours, read-out: Antimicrobial effect: minimum inhibiting concentration (MIC)",5000 to 10000 µg/mL
same,Antimicrobial effect: minimum inhibiting concentration (MIC),[2]; [18],C (Minimum inhibiting concentration of 5000 ppm to less than 10000 ppm)
same,MIC,"[3]; Aspergillus niger (ATCC16404), read-out: Antimicrobial effect (minimum inhibiting concentration class)",1000 to 5000 µg/mL
same,MIC,[3]; [12],1000 to 5000 µg/mL
same,MIC,"[3]; Aspergillus niger, ATCC16404, Table I-1, potato dextrose agar media, 25° C., 48 hours, read-out: Antimicrobial effect: minimum inhibiting concentration (MIC)",1000 to 5000 µg/mL
same,Antimicrobial effect: minimum inhibiting concentration (MIC),[3]; [19],B (Minimum inhibiting concentration of 1000 ppm to less than 5000 ppm)
same,MIC,"[4]; Escherichia coli (ATCC8739), read-out: Antimicrobial effect (minimum inhibiting concentration class)",1000 to 5000 µg/mL
same,MIC,[4]; [13],1000 to 5000 µg/mL
same,MIC,"[4]; Escherichia coli, ATCC8739, Table I-1, SCD agar media, 30° C., 24 hours, read-out: Antimicrobial effect: minimum inhibiting concentration (MIC)",1000 to 5000 µg/mL
same,Antimicrobial effect: minimum inhibiting concentration (MIC),[4]; [18],B (Minimum inhibiting concentration of 1000 ppm to less than 5000 ppm)
same,MIC,"[5]; Staphylococcus aureus (ATCC6538), read-out: Antimicrobial effect (minimum inhibiting concentration class)",1000 to 5000 µg/mL
same,MIC,[5]; [14],1000 to 5000 µg/mL
same,MIC,"[5]; Staphylococcus aureus, ATCC6538, Table I-1, SCD agar media, 30° C., 24 hours, read-out: Antimicrobial effect: minimum inhibiting concentration (MIC)",1000 to 5000 µg/mL
same,Antimicrobial effect: minimum inhibiting concentration (MIC),[5]; [18],B (Minimum inhibiting concentration of 1000 ppm to less than 5000 ppm)
same,MIC,"[6]; Candida albicans (ATCC10231), read-out: Antimicrobial effect (minimum inhibiting concentration class)",1000 to 5000 µg/mL
same,MIC,[6]; [15],1000 to 5000 µg/mL
same,MIC,"[6]; Candida albicans, ATCC10231, Table I-1, potato dextrose agar media, 25° C., 48 hours, read-out: Antimicrobial effect: minimum inhibiting concentration (MIC)",1000 to 5000 µg/mL
same,Antimicrobial effect: minimum inhibiting concentration (MIC),[6]; [19],B (Minimum inhibiting concentration of 1000 ppm to less than 5000 ppm)

# Reference: patent US20060257436A1, “Skin preparation composition for external use” (Shiseido Company, Ltd., priority 2003, published 2006)
